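Cells were grown in 96-well plates and exposed to each compound for 48 hours at five concentrations; endpoints were interpolated linearly between bracketing concentrations, or set to the highest concentration if not reached. Definition used: TGI = concentration required for complete inhibition of growth.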
How the values were obtained:
Assay in all cases: inhibition of tumour cell growth, NCI panel, 48 h
SF-268 CNS = system: SF-268 CNS
OVCAR-5 ovarian = system: OVCAR-5 ovarian
A549 NSCLC = system: A549 NSCLC
HCT-15 colon = system: HCT-15 colon
COLO 205 colon = system: COLO 205 colon
DMS 273 small cell lung = system: DMS 273 small cell lung
MOLT-4 leukemia = system: MOLT-4 leukemia
TK-10 renal = system: TK-10 renal
IGROV1 ovarian = system: IGROV1 ovarian
HT29 colon = system: HT29 colon
ACHN renal = system: ACHN renal
UACC-257 melanoma = system: UACC-257 melanoma
RXF 393 renal = system: RXF 393 renal
HCT-116 colon = system: HCT-116 colon
CCRF-CEM leukemia = system: CCRF-CEM leukemia
LOX IMVI melanoma = system: LOX IMVI melanoma
OVCAR-4 ovarian = system: OVCAR-4 ovarian
HCC-2998 colon = system: HCC-2998 colon
HOP-62 NSCLC = system: HOP-62 NSCLC
NCI-H226 lung = system: NCI-H226 lung
786-0 renal = system: 786-0 renal
U251 CNS = system: U251 CNS
DLD-1 colon = system: DLD-1 colon
MALME-3M melanoma = system: MALME-3M melanoma
SK-MEL-2 melanoma = system: SK-MEL-2 melanoma
M14 melanoma = system: M14 melanoma
SW-620 colon = system: SW-620 colon
SF-539 CNS = system: SF-539 CNS
EKVX NSCLC = system: EKVX NSCLC
NCI-H522 lung = system: NCI-H522 lung
NCI-H23 lung = system: NCI-H23 lung
A498 renal = system: A498 renal
SF-295 CNS = system: SF-295 CNS
SN12C renal = system: SN12C renal
SK-MEL-5 melanoma = system: SK-MEL-5 melanoma
SK-MEL-28 melanoma = system: SK-MEL-28 melanoma
RPMI-8226 leukemia = system: RPMI-8226 leukemia
NCI-H460 lung = system: NCI-H460 lung
M19-MEL melanoma = system: M19-MEL melanoma
HL-60(TB) leukemia = system: HL-60(TB) leukemia
CAKI-1 renal = system: CAKI-1 renal
OVCAR-3 ovarian = system: OVCAR-3 ovarian
SR leukemia = system: SR leukemia
KM20L2 colon = system: KM20L2 colon
HOP-18 NSCLC = system: HOP-18 NSCLC
SNB-78 CNS = system: SNB-78 CNS
HOP-92 NSCLC = system: HOP-92 NSCLC
OVCAR-8 ovarian = system: OVCAR-8 ovarian
UACC-62 melanoma = system: UACC-62 melanoma
KM12 colon = system: KM12 colon
K-562 leukemia = system: K-562 leukemia
UO-31 renal = system: UO-31 renal
SK-OV-3 ovarian = system: SK-OV-3 ovarian
SNB-75 CNS = system: SNB-75 CNS
SNB-19 CNS = system: SNB-19 CNS
HS 578T breast = system: HS 578T breast
MDA-N = system: MDA-N
NCI/ADR-RES ovarian = system: NCI/ADR-RES ovarian
MDA-MB-231 breast = system: MDA-MB-231 breast
PC-3 prostate = system: PC-3 prostate
MDA-MB-435 = system: MDA-MB-435
DU-145 prostate = system: DU-145 prostate
T-47D breast = system: T-47D breast
BT-549 breast = system: BT-549 breast
MCF7 breast = system: MCF7 breast
LXFL 529 NSCLC = system: LXFL 529 NSCLC
XF 498 CNS = system: XF 498 CNS

SMILES: CN1CCOC(C(NC(=O)c2ccccc2)c2ccccc2)C1=O (stereo unspecified)
- TGI (SF-268 CNS): > 100 µM
- TGI (OVCAR-5 ovarian): > 100 µM
- TGI (A549 NSCLC): > 100 µM
- TGI (HCT-15 colon): > 100 µM
- TGI (COLO 205 colon): > 100 µM
- TGI (DMS 273 small cell lung): > 100 µM
- TGI (MOLT-4 leukemia): > 100 µM
- TGI (TK-10 renal): > 100 µM
- TGI (IGROV1 ovarian): > 100 µM
- TGI (HT29 colon): > 100 µM
- TGI (ACHN renal): > 100 µM
- TGI (UACC-257 melanoma): > 100 µM
- TGI (RXF 393 renal): > 100 µM
- TGI (HCT-116 colon): > 100 µM
- TGI (CCRF-CEM leukemia): > 100 µM
- TGI (LOX IMVI melanoma): > 100 µM
- TGI (OVCAR-4 ovarian): > 100 µM
- TGI (HCC-2998 colon): > 100 µM
- TGI (HOP-62 NSCLC): > 100 µM
- TGI (NCI-H226 lung): > 100 µM
- TGI (786-0 renal): > 100 µM
- TGI (U251 CNS): > 100 µM
- TGI (DLD-1 colon): > 100 µM
- TGI (MALME-3M melanoma): > 100 µM
- TGI (SK-MEL-2 melanoma): > 100 µM
- TGI (M14 melanoma): > 100 µM
- TGI (SW-620 colon): > 100 µM
- TGI (SF-539 CNS): > 100 µM
- TGI (EKVX NSCLC): > 100 µM
- TGI (NCI-H522 lung): > 100 µM
- TGI (NCI-H23 lung): > 100 µM
- TGI (A498 renal): > 100 µM
- TGI (SF-295 CNS): > 100 µM
- TGI (SN12C renal): > 100 µM
- TGI (SK-MEL-5 melanoma): > 100 µM
- TGI (SK-MEL-28 melanoma): > 100 µM
- TGI (RPMI-8226 leukemia): > 100 µM
- TGI (NCI-H460 lung): > 100 µM
- TGI (M19-MEL melanoma): > 100 µM
- TGI (HL-60(TB) leukemia): > 100 µM
- TGI (CAKI-1 renal): > 100 µM
- TGI (OVCAR-3 ovarian): > 100 µM
- TGI (SR leukemia): > 100 µM
- TGI (KM20L2 colon): > 100 µM
- TGI (HOP-18 NSCLC): > 100 µM
- TGI (SNB-78 CNS): > 100 µM
- TGI (HOP-92 NSCLC): > 100 µM
- TGI (OVCAR-8 ovarian): > 100 µM
- TGI (UACC-62 melanoma): > 100 µM
- TGI (KM12 colon): > 100 µM
- TGI (K-562 leukemia): > 100 µM
- TGI (UO-31 renal): > 100 µM
- TGI (SK-OV-3 ovarian): > 100 µM
- TGI (SNB-75 CNS): > 100 µM
- TGI (SNB-19 CNS): > 100 µM

SMILES: COC(=O)[C@H](Cc1ccccc1)NC(=O)c1ccc(CNC(=O)/C=C/c2csc(-c3ccccc3)n2)cc1
- TGI (SF-268 CNS): > 100 µM
- TGI (HS 578T breast): 58.1 µM
- TGI (OVCAR-5 ovarian): > 100 µM
- TGI (A549 NSCLC): > 72.2 µM
- TGI (HCT-15 colon): > 60.4 µM
- TGI (COLO 205 colon): > 83.2 µM
- TGI (MOLT-4 leukemia): 6.68 µM
- TGI (TK-10 renal): 45.4 µM
- TGI (IGROV1 ovarian): > 23.2 µM
- TGI (HT29 colon): 43.1 µM
- TGI (ACHN renal): 44 µM
- TGI (UACC-257 melanoma): 7.72 µM
- TGI (RXF 393 renal): 26.8 µM
- TGI (HCT-116 colon): > 51.7 µM
- TGI (CCRF-CEM leukemia): > 100 µM
- TGI (LOX IMVI melanoma): > 52.8 µM
- TGI (OVCAR-4 ovarian): > 71 µM
- TGI (HCC-2998 colon): 19.4 µM
- TGI (HOP-62 NSCLC): 52.5 µM
- TGI (NCI-H226 lung): > 100 µM
- TGI (MDA-N): 15.5 µM
- TGI (786-0 renal): 21 µM
- TGI (NCI/ADR-RES ovarian): > 91.7 µM
- TGI (U251 CNS): > 72.1 µM
- TGI (MDA-MB-231 breast): 57.7 µM
- TGI (MALME-3M melanoma): 11.8 µM
- TGI (PC-3 prostate): > 58.2 µM
- TGI (SK-MEL-2 melanoma): 9.1 µM
- TGI (M14 melanoma): 3.81 µM
- TGI (SW-620 colon): > 100 µM
- TGI (SF-539 CNS): 13 µM
- TGI (EKVX NSCLC): > 88.5 µM
- TGI (NCI-H522 lung): 13.7 µM
- TGI (MDA-MB-435): > 36.7 µM
- TGI (NCI-H23 lung): > 87.4 µM
- TGI (A498 renal): 34.5 µM
- TGI (SF-295 CNS): 25.8 µM
- TGI (DU-145 prostate): > 74.6 µM
- TGI (SN12C renal): 46.2 µM
- TGI (T-47D breast): 7.12 µM
- TGI (SK-MEL-5 melanoma): 14.7 µM
- TGI (SK-MEL-28 melanoma): 10.9 µM
- TGI (RPMI-8226 leukemia): > 100 µM
- TGI (NCI-H460 lung): 42.6 µM
- TGI (HL-60(TB) leukemia): > 100 µM
- TGI (CAKI-1 renal): > 28.7 µM
- TGI (OVCAR-3 ovarian): 26.3 µM
- TGI (BT-549 breast): > 100 µM
- TGI (SR leukemia): > 21.5 µM
- TGI (MCF7 breast): 32 µM
- TGI (HOP-92 NSCLC): 9.88 µM
- TGI (OVCAR-8 ovarian): > 65.4 µM
- TGI (UACC-62 melanoma): 31.1 µM
- TGI (KM12 colon): > 100 µM
- TGI (K-562 leukemia): > 31.9 µM
- TGI (UO-31 renal): 27.3 µM
- TGI (SK-OV-3 ovarian): > 65.5 µM
- TGI (SNB-75 CNS): 42 µM
- TGI (SNB-19 CNS): 39.6 µM

SMILES: CCN(CC)CCNc1ccc2ncn3c4ccc(O)cc4c(=O)c1c23
- TGI (SF-268 CNS): 13.6 µM
- TGI (HS 578T breast): 21 µM
- TGI (OVCAR-5 ovarian): 17.4 µM
- TGI (A549 NSCLC): 7 µM
- TGI (HCT-15 colon): 13 µM
- TGI (COLO 205 colon): 14.7 µM
- TGI (DMS 273 small cell lung): 12.5 µM
- TGI (MOLT-4 leukemia): 3.59 µM
- TGI (TK-10 renal): 20.1 µM
- TGI (IGROV1 ovarian): 14.3 µM
- TGI (HT29 colon): 7.06 µM
- TGI (ACHN renal): 2.89 µM
- TGI (UACC-257 melanoma): 21.2 µM
- TGI (RXF 393 renal): 1.96 µM
- TGI (HCT-116 colon): 13 µM
- TGI (CCRF-CEM leukemia): 16.5 µM
- TGI (LOX IMVI melanoma): 3.15 µM
- TGI (OVCAR-4 ovarian): 9.81 µM
- TGI (HCC-2998 colon): 18.1 µM
- TGI (HOP-62 NSCLC): 11.6 µM
- TGI (NCI-H226 lung): 1.33 µM
- TGI (MDA-N): 17.9 µM
- TGI (786-0 renal): 14.1 µM
- TGI (NCI/ADR-RES ovarian): 16.1 µM
- TGI (U251 CNS): 2.75 µM
- TGI (DLD-1 colon): 15.1 µM
- TGI (MDA-MB-231 breast): 14.1 µM
- TGI (MALME-3M melanoma): 15.8 µM
- TGI (LXFL 529 NSCLC): 17.6 µM
- TGI (PC-3 prostate): 14.5 µM
- TGI (SK-MEL-2 melanoma): 21.4 µM
- TGI (M14 melanoma): 9.05 µM
- TGI (SW-620 colon): 8.84 µM
- TGI (SF-539 CNS): 16.9 µM
- TGI (EKVX NSCLC): 21.9 µM
- TGI (NCI-H522 lung): 15.7 µM
- TGI (MDA-MB-435): 18.4 µM
- TGI (NCI-H23 lung): 13.8 µM
- TGI (A498 renal): 13.7 µM
- TGI (SF-295 CNS): 15.1 µM
- TGI (DU-145 prostate): 18.4 µM
- TGI (SN12C renal): 15.1 µM
- TGI (T-47D breast): 30.7 µM
- TGI (SK-MEL-5 melanoma): 10.4 µM
- TGI (SK-MEL-28 melanoma): 21.8 µM
- TGI (RPMI-8226 leukemia): 11.1 µM
- TGI (NCI-H460 lung): 12.2 µM
- TGI (M19-MEL melanoma): 17.1 µM
- TGI (HL-60(TB) leukemia): 11.6 µM
- TGI (CAKI-1 renal): 2.08 µM
- TGI (OVCAR-3 ovarian): 13.6 µM
- TGI (BT-549 breast): 24.9 µM
- TGI (SR leukemia): 2.27 µM
- TGI (MCF7 breast): 12.6 µM
- TGI (KM20L2 colon): 14.9 µM
- TGI (HOP-18 NSCLC): 33.3 µM
- TGI (SNB-78 CNS): 17.6 µM
- TGI (HOP-92 NSCLC): 12.8 µM
- TGI (OVCAR-8 ovarian): 9.55 µM
- TGI (UACC-62 melanoma): 11.8 µM
- TGI (KM12 colon): 10.6 µM
- TGI (K-562 leukemia): 34.4 µM
- TGI (UO-31 renal): 6.94 µM
- TGI (SK-OV-3 ovarian): 18.2 µM
- TGI (XF 498 CNS): 7.42 µM
- TGI (SNB-75 CNS): 11.6 µM
- TGI (SNB-19 CNS): 19.2 µM

Reference: PubChem BioAssay (NCI)
